As to `CN(C)Cc1coc(-c2cccc(C3=Nc4ccc(-n5cccc5)cc4NC(=O)C3)c2)n1`, the melting point (commonly the temperature of the solid-liquid transition) lay within 172 to 175 °C.

Consider `O=C(NC1CCc2ccc([N+](=O)[O-])cc2C1)c1ccccc1` (stereo not given), for which the melting point was in the range of 194 to 198 °C.

The compound `Cc1ccc([N+](=O)[O-])c(CC2NC(=O)NC2=O)c1C` (stereo not given) displayed a melting point of 172 to 174 °C.

With `CCOC(=O)Nc1cccc(-c2ccc3nnc(C)n3n2)c1`, the melting point lay within 232 to 235 °C.

`C=C1CCC2C3CCC4=CC(=O)CCC4C3CCC12C` (stereo not given) gave a melting point of 83 to 89 °C.

`Cc1ccc(C(=O)N2CCc3cc(S(=O)(=O)N4CC(c5ccccc5)NC4=O)ccc32)cc1` (stereo not given) yielded a melting point of 125 °C.

On to `C[C@@H]1OC(=O)C[C@H]2O[C@@H]12`, for which the melting point was in the range of 51 to 52 °C.

`COc1ccc(CC(=O)Nc2cccc(/C=C/c3nc(C4CCC4)cs3)c2)c(C(=O)O)c1` showed a melting point of 190 to 191 °C.

With `CC1(C(=O)c2c[nH]c3ncc(-c4ccc(N5CCCCC5)cc4)nc23)CCCCC1`, the melting point is 234 to 236 °C.

Compound `CS(=O)(=O)ON1C(=O)CCC1=O` came in with a melting point of 148 to 150 °C.

`COC(COC1CC2C3CCC4=CC(=O)CCC4(C)C3(F)C(O)CC2(C)C1(O)C(=O)CO)OC` (stereo not given) came in with a melting point of 192 to 194 °C.

`CCOC(=O)c1cn(CC)c2nc(N3CCN(CC)CC3)ncc2c1=O` registered a melting point of 161 °C.

Compound `Nc1ncc(Br)nc1OCC1CCCC1` had a melting point of 78 to 79 °C.

For `O=C(NCc1ccccc1)c1ccnc(-n2ccc(OCc3ccccc3)cc2=O)c1`, the melting point is 158 to 161 °C.

In turn, `O=[N+]([O-])c1c(-c2cc(Cl)cc(Cl)c2)[nH]c2c(Cl)cc(Cl)cc12` registered a melting point of 272 to 273 °C.

`CC(C)(C)[Si](C)(C)OC1CCCc2cnc3cc(OCc4ccccc4)ccc3c21` (stereo not given) displayed a melting point of 123 to 125 °C.

For `CC(COc1cccc(Oc2ccccc2)c1)OS(N)(=O)=O` (stereo not given), the melting point lay in the range of 81 to 84 °C.

For the compound `CC(C)OC(=O)OC1Oc2ccc(OS(=O)(=O)N(C)C)cc2C1(C)C` (stereo not given), the melting point lay in the range of 95 to 96 °C.

`N#Cc1cc2[nH]c(=O)c3n[nH]c(=O)n3c2cc1-n1ccnc1`: the melting point is over 300 °C.

In the case of `CCn1c(=O)c2c(nc(/C=C/c3ccc(OCCCCN)cc3)n2C)n(CC)c1=O`, the melting point lay in the range of 212 to 214 °C.

Compound `O=C1O[C@@H](CO)CN1c1cccc(F)c1` showed a melting point of 106 to 108 °C.

The compound `O=C(O)Cc1ccc(SCCNC(=O)C2Cc3ccccc3N2S(=O)(=O)c2ccc(-c3ccccc3C(F)(F)F)cc2)c(Cl)c1` (stereo not given) registered a melting point of 86 °C.

The compound `CCOc1cc([N+](=O)[O-])ccc1N1C(=O)c2ccccc2C1=O` displayed a melting point of 204 to 206 °C.

Regarding `O=C1CCCc2scnc21`, the melting point fell in the range of 121 to 122 °C.

As for `COc1ccc(Nc2nc(N)nc3[nH]c4ccccc4c23)cc1`, the melting point amounted to 209 °C.

`O=C(Cc1ccc(Cl)cc1C(=O)O)Nc1cccc(/C=C/c2nc(C3CCC3)cs2)c1` had a melting point of 223 to 225 °C.

The compound `COC(=O)c1ccc2c(c1)C(S(=O)(=O)c1ccccc1)CC(=O)CO2` (stereo not given) yielded a melting point of 128 to 130 °C.

Regarding `COc1cc(C(=O)Nc2ccc(N3CCCC3)cc2C(C)=O)ccc1OCc1ccccc1`, the melting point was 152 to 154 °C.

Consider `O=C(N1CCc2ccc(S(=O)(=O)F)cc2C1)C(F)(F)F`, for which the melting point is 99 to 103 °C.

As for `C#CC(C)(O)c1ccc(Oc2ccc(Cl)cc2)cc1` (stereo not given), the melting point fell in the range of 55 to 57 °C.

`CCCn1nc(C2CC2)c(C(=O)O)c1Cc1ccc(-c2ccccc2S(=O)(=O)NC(=O)c2ccccc2)cc1` showed a melting point of 230 to 232 °C.

`CSC1=CC2=CN(S)NN2C(SC)=N1` returned a melting point of 250 to 252 °C.

The compound `COc1ccc(CC(=O)Nc2cccc3c2C(=O)c2c-3n[nH]c2-c2ccc(OC)cc2)cc1` displayed a melting point of 280 °C.

With `CN1CCCC1c1ccc(CCNC(=O)c2ccc(Br)cc2)cc1` (stereo not given), the melting point lay within 133 to 134 °C.

Regarding `COc1ccc(-c2ccccc2C(SCC(=O)c2ccccc2)C(OC(C)=O)C(N)=O)cc1` (stereo not given), the melting point was in the range of 122 to 123 °C.

`O=C1CCc2c(Br)cc([N+](=O)[O-])c(O)c21` showed a melting point of 149 to 151 °C.

In the case of `CC(=O)c1csc2ccc(F)cc12`, the melting point fell in the range of 90 to 92 °C.

With `O=c1cc(-c2nnn[nH]2)oc2c(COc3ccc(OCc4ccc5ccccc5n4)cc3)cccc12`, the melting point was over 250 °C.

`Nc1ncnc2ncn(COCCCl)c12` yielded a melting point of 184 to 186 °C.

The compound `O=C(CCCBr)N1CC(c2ccc(Cl)cc2)Sc2ccccc21` (stereo not given) gave a melting point of 91 to 92 °C.

Turning to `CCNC(=O)c1c(C)cccc1N(C)C(C)(C)C`, the melting point lay in the range of 101 to 103 °C.

In the case of `COc1ccc(NN)c(C)c1`, the melting point stood at 105 °C.

As to `c1cc2nc3c(n2nc1N1CCCC1)CCCC3`, the melting point turned out to be 161 °C.

As for `CCOC(=O)C(=O)Nc1cc(C)c(C)cc1[N+](=O)[O-]`, the melting point was 109 °C.

In turn, `O=C(O)CCNC(=O)C1=C(C(=O)Nc2ccc(Cl)cc2F)CCCC1` displayed a melting point of 158 to 159 °C.

`CC(C)Cn1c(CNC(=O)OC(C)(C)C)c(-c2cccs2)c2cc(OCC(N)=O)ccc2c1=O` came in with a melting point of 219 to 221 °C.

The compound `CCN(C)c1nc2cc(Br)ccn2n1` displayed a melting point of 109 to 111 °C.

On to `NC1=C(NC=O)C(=O)N2CCN=C2N1`, for which the melting point was found to be 268 °C.

On to `O=C(NCNC(=O)c1ccccc1C(=O)c1ccccc1)Nc1cccc(C(=O)OCc2ccccc2)c1`, for which the melting point lay within 157 to 159 °C.

As for `O=C1NCc2cnc(Nc3ccc(N4CCC(CCCO)CC4)cc3)nc2N1C1CCCC1`, the melting point was over 230 °C.

For `C#CCOc1ccc2ccc(=O)oc2c1`, the melting point came out at 118 °C.

In turn, `COc1cccc2c1CC(C(=O)NCCOc1ccc(CC(=O)O)cc1)N2S(=O)(=O)c1ccc(-c2cccc(C(F)(F)F)c2)cc1` (stereo not given) displayed a melting point of 96 °C.

Turning to `CNCC1=NN=C(c2ccc([N+](=O)[O-])cc2)c2cc3c(cc2C1)OCO3`, the melting point fell in the range of 110 to 112 °C.

`CCCCCCSc1nn2c(=O)cc(-c3ccccc3)nc2s1` gave a melting point of 90 to 91 °C.

The compound `COCCOCc1nc2cnc3ccc(OCc4ccccc4)cc3c2n1C` displayed a melting point of 128 to 132 °C.

In turn, `O=C(O)C#Cc1ccc(-c2ccc(Cl)cc2)cn1` displayed a melting point of 210 °C.

The compound `Cc1nc(O)c2[nH]nc(C(C)C)c2n1` yielded a melting point of over 250 °C.

Consider `CC(C)(C#N)c1ccc(OCc2ccccc2)cc1`, for which the melting point was in the range of 63 to 64 °C.

With `COC(=O)CC(=O)c1ccc(C#N)cc1`, the melting point was 93 to 98 °C.

Take `OCc1cn(C(c2ccccc2)(c2ccccc2)c2ccccc2)cn1`: the melting point fell in the range of 224 to 227 °C.

As for `NC(=S)c1c[nH]cc1-c1cccc(Cl)c1Cl`, the melting point fell in the range of 128 to 132 °C.

The compound `CCCCNC(=O)NS(=O)(=O)Cc1ccccc1-c1nnc(SC)o1` displayed a melting point of 156 to 159 °C.

`OC1C=C(c2ccc(C(F)(F)F)cc2)CN(Cc2ccccc2)C1` (stereo not given): the melting point is 88 to 90 °C.

`Cc1cc(OCC(=O)O)c(C(C)C)cc1SCc1sc(-c2ccc(C(F)(F)F)cc2)nc1C` registered a melting point of 168 to 171 °C.

Regarding `Nc1ccc(Oc2c(Cl)cc(C(F)(F)F)cc2Cl)cc1`, the melting point fell in the range of 128 to 130 °C.

`N=C(N)c1ccc(O)c(C(=O)c2ccccc2)c1`: the melting point is 186 to 189 °C.

As to `Ic1ccc(-c2nc3ccccc3n2-c2ccccc2)cc1`, the melting point fell in the range of 178 to 181 °C.

`N#Cc1ccccc1OC1SCC(O)C(O)C1O` (stereo not given) had a melting point of 130 to 132 °C.

For the compound `Cn1c(Nc2c(Cl)cccc2Cl)nc2cc(C(=O)NC3CCC(C)(C)CC3)ccc21`, the melting point was 189 to 190 °C.

`CC(=O)OC1OCC[C@@H]1NC(=O)[C@H](CC(C)C)NC(=O)[C@H](CC(C)C)NC(=O)c1ccc2c(c1)Nc1ccccc1S2` (stereo not given in full) gave a melting point of 121 to 122 °C.

`COC(=O)CCC(C#N)(CCC(=O)OC)c1ccc(OC)c(OC2CCCC2)c1`: the melting point lay within 81 to 82 °C.

`COC(=O)c1cc2cc(C[C@@H](C)NC[C@H](O)c3cccc(Cl)c3)ccc2n1CC1CC1` gave a melting point of 135 to 137 °C.

`Cn1nnnc1-c1ccc2oc3ncccc3c(=O)c2c1`: the melting point stood at 248 °C.

In the case of `CCOc1ccccc1OCCNC(C)Cc1ccc(OC)c(S(N)(=O)=O)c1` (stereo not given), the melting point lay in the range of 118 to 124 °C.

In turn, `Cc1cccc(NC(=O)N=C2CCCN2C)c1` returned a melting point of 137 to 142 °C.

Consider `CCOC(=O)C(C#N)=CC1C=C(OC)C(C(=O)OC)=C(OC)C1` (stereo not given), for which the melting point lay in the range of 119 to 121 °C.

Regarding `Cc1ccc(C(=O)N2CCc3cc(C(=O)NO)ccc3C2)cc1`, the melting point was in the range of 105 to 108 °C.

`CCOC(=O)c1cn(CC)c2cc(C(=O)C=CN(C)C)c(F)cc2c1=O` came in with a melting point of 176 to 179 °C.

Take `COC1CN(CCC(C(=O)N(C)C)(c2ccccc2)c2ccccc2)CCC1NC(=O)c1ccccc1` (stereo not given): the melting point came out at 147 °C.

In turn, `O=C(CC1CCCCCC1)c1cn(CCO)c2cccc(Cl)c12` displayed a melting point of 113 to 119 °C.

`CN1CCN(c2n[nH]c3cc(F)ccc23)CC1` yielded a melting point of 164 to 166 °C.

The compound `CCCn1nc2c(N)nc3ccccc3c2c1NC` yielded a melting point of 200 to 201 °C.

As for `Cc1nnn(CC(C)n2nnc3cc4c(=O)n(C5CC5)nnc4cc3c2=O)n1` (stereo not given), the melting point is 157 to 160 °C.

In the case of `Cc1ccc(-c2ccc(-c3nnn[nH]3)cc2)cc1C`, the melting point is 192 to 194 °C.

As to `CP(C)(=O)COC(=O)c1cncn1C(c1ccccc1)c1ccccc1`, the melting point was found to be 174 °C.

In turn, `CC1CC(NC(=O)C(F)(F)F)=NN1c1ccc(C(=O)C(F)(F)F)cc1` (stereo not given) displayed a melting point of 189 to 190 °C.

`CCCCCCCC(=O)N(C)Cc1cccc(-c2ccc(Nc3ccccc3C(=O)O)cc2)c1` displayed a melting point of 45 °C.

On to `Clc1nc(-c2cccnc2)sc1NC1CC1`, for which the melting point lay in the range of 56 to 60 °C.

`COC(=O)c1ccc(C(=O)OC)c(S(N)(=O)=O)c1` returned a melting point of 165 to 170 °C.

For the compound `COc1ccc2c(c1)CC(C(F)(F)F)N2C(=O)Nc1ccc(Oc2cccnc2)nc1` (stereo not given), the melting point lay within 202 to 204 °C.

The values are drawn from a melting point compilation (Tetko et al.; mined from patent text by program, amines drawn as free bases though some values may be those of a salt).
